# Data taken from ChEMBL document CHEMBL5465560, “Selectivity Literature for EUbOPEN Chemogenomic Library” (2024).
# Legend:
# [1] = molecular target: T1, Casein kinase I isoform alpha-like (Homo sapiens) (UniProt Q8N752); details: at 10 µM
# T1 sequence (whole entry): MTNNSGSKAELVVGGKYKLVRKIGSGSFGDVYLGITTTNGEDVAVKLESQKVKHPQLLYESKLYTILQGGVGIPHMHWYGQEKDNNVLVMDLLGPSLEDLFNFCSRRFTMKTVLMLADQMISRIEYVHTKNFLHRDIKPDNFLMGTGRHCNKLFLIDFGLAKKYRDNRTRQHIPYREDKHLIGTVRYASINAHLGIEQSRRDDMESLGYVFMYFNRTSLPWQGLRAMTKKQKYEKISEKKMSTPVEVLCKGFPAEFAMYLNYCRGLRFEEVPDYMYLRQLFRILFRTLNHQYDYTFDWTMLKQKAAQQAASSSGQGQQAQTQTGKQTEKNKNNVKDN
# [2] = molecular target: Histone-lysine N-methyltransferase SETDB1 (Homo sapiens) (UniProt Q15047); test: Selectivity interaction (Methyltransferase screen (Scintillation proximity assays)) EUB0000255b SETDB1
# [3] = molecular target: Tyrosine-protein kinase JAK2 (Homo sapiens, UniProt O60674); test: Selectivity interaction (KinomeScan (DiscoverX)) EUB0000229b JAK2; details: at 10 µM
# Tyrosine-protein kinase JAK2, sequence (O60674 whole entry): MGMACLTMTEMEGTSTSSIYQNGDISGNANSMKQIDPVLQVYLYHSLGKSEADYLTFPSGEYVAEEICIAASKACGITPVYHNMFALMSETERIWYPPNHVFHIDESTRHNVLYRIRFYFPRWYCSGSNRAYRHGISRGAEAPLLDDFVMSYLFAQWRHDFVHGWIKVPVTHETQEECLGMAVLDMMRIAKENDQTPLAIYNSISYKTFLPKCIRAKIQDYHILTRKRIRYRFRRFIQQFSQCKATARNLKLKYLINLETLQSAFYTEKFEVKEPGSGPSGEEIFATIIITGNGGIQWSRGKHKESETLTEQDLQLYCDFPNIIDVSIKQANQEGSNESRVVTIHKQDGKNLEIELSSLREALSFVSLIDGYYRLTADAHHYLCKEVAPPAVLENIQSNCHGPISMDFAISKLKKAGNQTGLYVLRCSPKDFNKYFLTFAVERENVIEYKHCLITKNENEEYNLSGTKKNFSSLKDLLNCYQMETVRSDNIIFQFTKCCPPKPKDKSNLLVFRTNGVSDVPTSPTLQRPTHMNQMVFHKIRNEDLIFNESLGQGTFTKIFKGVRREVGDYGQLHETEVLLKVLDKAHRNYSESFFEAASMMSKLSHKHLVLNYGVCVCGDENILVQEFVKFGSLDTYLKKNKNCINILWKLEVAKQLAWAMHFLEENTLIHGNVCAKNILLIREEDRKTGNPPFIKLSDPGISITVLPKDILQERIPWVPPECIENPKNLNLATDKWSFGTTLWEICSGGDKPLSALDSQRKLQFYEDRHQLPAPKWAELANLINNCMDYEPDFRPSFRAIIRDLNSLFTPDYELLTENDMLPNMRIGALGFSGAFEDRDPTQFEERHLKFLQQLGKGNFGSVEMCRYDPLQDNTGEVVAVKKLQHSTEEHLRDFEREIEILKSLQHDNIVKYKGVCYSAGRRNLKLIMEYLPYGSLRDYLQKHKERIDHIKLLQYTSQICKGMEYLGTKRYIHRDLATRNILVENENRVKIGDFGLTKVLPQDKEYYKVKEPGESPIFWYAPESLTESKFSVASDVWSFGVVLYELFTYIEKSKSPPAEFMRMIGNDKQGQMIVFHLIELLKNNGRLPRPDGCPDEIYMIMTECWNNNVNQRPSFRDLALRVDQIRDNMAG
# [4] = molecular target: T2, Mitogen-activated protein kinase 13 (Homo sapiens) (UniProt O15264); test: Selectivity interaction (KinomeScan (DiscoverX)) EUB0000229b MAPK13; details: at 10 µM
# T2 sequence (whole entry): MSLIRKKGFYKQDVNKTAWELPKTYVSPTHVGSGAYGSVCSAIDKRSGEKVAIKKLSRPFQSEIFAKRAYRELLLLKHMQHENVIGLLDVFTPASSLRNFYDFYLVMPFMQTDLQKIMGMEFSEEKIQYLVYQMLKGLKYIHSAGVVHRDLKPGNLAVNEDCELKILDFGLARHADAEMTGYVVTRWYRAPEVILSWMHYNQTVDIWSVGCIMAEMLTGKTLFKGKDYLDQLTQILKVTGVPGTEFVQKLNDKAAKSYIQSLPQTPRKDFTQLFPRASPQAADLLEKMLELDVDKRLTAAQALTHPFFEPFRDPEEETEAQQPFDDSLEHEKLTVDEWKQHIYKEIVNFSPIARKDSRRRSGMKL
# [5] = molecular target: Tyrosine-protein kinase CSK (Homo sapiens) (UniProt P41240); test: Selectivity interaction (KinomeScan (DiscoverX)) EUB0000655a CSK; details: at 10 µM
# Tyrosine-protein kinase CSK (Homo sapiens), sequence (P41240 2-450 limits assumed): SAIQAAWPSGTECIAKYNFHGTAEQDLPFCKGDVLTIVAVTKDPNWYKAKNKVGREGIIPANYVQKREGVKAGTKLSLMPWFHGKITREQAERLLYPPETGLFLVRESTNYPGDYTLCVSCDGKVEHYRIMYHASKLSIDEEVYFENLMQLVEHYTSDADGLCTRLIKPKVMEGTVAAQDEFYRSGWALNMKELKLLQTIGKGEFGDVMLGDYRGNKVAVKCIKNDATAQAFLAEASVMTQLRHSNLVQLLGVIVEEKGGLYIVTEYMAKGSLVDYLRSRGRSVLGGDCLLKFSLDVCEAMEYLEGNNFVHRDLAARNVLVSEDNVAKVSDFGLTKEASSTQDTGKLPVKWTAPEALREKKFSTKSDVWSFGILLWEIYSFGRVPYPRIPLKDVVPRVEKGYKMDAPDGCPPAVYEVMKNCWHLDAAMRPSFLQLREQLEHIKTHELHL
# [6] = molecular target: T3, 5-hydroxytryptamine receptor 2C (Homo sapiens) (UniProt P28335); test: Selectivity interaction (Panel of kinases, GPCRs, ion channels and transporters (enzymatic assay)) EUB0000266bCl HTR2C
# T3 sequence (whole entry): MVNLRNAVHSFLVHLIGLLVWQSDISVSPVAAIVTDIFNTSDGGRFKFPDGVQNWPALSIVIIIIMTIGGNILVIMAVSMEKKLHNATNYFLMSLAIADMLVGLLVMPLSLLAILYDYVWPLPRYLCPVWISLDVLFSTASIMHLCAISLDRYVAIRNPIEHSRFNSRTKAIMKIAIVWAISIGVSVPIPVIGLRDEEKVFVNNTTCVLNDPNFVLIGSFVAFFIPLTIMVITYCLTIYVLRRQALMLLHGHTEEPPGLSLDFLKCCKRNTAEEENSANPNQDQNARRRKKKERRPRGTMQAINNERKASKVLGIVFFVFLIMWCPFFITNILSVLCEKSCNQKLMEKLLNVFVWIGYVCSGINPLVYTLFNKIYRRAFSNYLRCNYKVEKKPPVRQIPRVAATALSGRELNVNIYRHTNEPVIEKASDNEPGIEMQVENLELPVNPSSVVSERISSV
# [7] = molecular target: T4, Phosphatidylinositol 4,5-bisphosphate 3-kinase catalytic subunit delta isoform (Homo sapiens) (UniProt O00329); test: Selectivity interaction (Kinase panel (KiNativ target engagement assay in Jurkat cells)) EUB0001635a PIK3CD; type: cell-based; details: Selectivity number of off-targets 0.0, Selectivity number of targets 233.0, Source Knowledge https://www.sciencedirect.com/science/article/pii/S2451945619300674?via%3Dihub, at 1 µM
# T4 sequence (whole entry): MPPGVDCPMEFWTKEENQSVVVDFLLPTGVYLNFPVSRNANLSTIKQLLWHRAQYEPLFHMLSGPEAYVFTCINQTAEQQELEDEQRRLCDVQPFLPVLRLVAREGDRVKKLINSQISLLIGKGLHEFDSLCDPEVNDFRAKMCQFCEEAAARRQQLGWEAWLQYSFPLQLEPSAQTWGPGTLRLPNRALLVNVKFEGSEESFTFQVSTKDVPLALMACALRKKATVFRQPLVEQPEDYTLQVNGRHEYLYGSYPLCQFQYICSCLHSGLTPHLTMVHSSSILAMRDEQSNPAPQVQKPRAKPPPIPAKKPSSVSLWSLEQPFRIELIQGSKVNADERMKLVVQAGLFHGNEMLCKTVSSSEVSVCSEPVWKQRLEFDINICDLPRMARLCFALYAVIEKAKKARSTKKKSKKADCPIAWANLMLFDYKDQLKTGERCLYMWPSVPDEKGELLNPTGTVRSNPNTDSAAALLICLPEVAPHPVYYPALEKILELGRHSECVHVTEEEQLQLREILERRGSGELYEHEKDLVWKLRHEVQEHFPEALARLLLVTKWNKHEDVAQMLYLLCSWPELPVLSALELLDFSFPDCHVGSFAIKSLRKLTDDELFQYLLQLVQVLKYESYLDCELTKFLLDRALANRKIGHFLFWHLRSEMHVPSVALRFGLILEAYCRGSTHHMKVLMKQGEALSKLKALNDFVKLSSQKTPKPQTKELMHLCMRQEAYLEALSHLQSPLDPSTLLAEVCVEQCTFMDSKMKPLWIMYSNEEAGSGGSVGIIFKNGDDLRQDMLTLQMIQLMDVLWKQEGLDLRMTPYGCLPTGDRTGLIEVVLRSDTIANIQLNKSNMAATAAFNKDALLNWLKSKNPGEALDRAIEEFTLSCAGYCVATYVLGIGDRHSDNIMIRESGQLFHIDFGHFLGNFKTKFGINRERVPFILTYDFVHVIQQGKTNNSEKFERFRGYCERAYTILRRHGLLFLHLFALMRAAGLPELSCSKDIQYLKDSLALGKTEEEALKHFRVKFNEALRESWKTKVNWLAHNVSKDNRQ
# [8] = molecular target: Serine/threonine-protein kinase 25 (Homo sapiens) (UniProt O00506); test: Selectivity interaction (Kinase panel (Invitrogen)) EUB0000639a STK25; details: at 200 nM
# Serine/threonine-protein kinase 25 (Homo sapiens), sequence (O00506 whole entry, looked up): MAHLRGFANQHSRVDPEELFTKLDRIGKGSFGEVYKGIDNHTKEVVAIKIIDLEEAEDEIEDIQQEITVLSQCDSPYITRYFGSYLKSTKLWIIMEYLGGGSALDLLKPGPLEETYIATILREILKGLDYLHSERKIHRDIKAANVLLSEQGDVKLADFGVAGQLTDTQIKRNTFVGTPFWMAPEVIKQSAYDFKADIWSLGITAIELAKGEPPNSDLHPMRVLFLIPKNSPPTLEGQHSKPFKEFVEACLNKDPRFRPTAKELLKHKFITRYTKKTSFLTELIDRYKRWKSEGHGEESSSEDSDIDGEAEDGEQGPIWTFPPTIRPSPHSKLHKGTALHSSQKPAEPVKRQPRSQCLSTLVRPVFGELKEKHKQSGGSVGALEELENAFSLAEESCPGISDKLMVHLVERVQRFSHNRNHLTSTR
# [9] = molecular target: Ephrin type-A receptor 5 (Homo sapiens) (UniProt P54756); test: Selectivity interaction (SelectScreen profiling (Invitrogen)) EUB0000607a EPHA5; details: at 2 µM
# Ephrin type-A receptor 5 (Homo sapiens), sequence (P54756 whole entry): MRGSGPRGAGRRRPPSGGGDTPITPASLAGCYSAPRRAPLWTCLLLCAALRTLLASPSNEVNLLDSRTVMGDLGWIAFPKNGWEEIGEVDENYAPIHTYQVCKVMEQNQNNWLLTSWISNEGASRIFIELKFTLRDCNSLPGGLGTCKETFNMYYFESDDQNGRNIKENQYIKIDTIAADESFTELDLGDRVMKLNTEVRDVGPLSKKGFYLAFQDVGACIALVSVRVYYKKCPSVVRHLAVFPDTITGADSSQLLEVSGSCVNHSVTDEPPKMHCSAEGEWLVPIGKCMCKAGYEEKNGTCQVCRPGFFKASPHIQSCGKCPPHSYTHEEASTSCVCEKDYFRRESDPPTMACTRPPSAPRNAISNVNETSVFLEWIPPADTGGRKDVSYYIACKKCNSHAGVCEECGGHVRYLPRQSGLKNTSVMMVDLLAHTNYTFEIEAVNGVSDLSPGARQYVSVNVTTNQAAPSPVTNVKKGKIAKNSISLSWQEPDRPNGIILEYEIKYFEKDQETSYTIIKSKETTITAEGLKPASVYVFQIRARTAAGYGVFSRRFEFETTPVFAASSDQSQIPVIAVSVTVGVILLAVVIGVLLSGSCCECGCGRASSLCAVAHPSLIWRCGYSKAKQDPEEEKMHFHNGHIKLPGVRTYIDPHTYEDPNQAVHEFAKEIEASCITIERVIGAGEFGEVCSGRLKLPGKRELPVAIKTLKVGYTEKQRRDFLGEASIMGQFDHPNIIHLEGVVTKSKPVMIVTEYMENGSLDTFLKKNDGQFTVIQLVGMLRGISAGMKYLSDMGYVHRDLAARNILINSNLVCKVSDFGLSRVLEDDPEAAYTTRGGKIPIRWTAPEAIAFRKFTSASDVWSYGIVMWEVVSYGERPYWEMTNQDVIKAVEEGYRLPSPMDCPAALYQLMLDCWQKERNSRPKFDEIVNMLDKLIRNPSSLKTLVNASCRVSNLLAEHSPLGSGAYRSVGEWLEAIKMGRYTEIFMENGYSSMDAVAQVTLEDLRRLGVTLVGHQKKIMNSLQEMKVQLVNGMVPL
# [10] = molecular target: Mitogen-activated protein kinase 14 (Homo sapiens, UniProt Q16539); test: Selectivity interaction (KinomeScan (DiscoverX)) EUB0000045b MAPK14
# Mitogen-activated protein kinase 14, sequence (Q16539 whole entry): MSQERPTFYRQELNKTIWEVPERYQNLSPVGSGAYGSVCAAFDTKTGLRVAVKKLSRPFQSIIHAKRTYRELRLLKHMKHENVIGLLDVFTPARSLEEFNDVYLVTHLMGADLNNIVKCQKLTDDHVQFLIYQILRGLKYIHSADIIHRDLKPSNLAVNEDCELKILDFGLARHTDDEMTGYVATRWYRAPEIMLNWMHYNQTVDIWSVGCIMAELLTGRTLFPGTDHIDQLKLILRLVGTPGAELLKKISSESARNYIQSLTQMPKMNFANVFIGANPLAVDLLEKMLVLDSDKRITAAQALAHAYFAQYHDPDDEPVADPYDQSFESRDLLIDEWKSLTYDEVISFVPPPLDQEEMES
# [11] = molecular target: Serine/threonine-protein kinase 38 (Homo sapiens) (UniProt Q15208); test: Selectivity interaction (KinomeScan (DiscoverX)) EUB0001619a STK38; details: at 1 µM
# Serine/threonine-protein kinase 38 (Homo sapiens), sequence (Q15208 2-465 limits assumed): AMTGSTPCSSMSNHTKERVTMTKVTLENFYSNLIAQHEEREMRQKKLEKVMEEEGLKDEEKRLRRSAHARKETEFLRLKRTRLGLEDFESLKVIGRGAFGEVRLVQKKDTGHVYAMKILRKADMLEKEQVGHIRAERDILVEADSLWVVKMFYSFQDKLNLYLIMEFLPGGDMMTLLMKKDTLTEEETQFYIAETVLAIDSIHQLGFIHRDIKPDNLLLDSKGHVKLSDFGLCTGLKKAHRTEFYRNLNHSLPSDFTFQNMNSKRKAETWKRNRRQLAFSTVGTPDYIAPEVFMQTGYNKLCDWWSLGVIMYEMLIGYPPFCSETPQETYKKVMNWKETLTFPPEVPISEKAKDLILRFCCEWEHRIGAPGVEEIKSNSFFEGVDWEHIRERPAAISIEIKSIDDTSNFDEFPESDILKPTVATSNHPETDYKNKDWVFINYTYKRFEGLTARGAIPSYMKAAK
smiles,measurement,setting,value
CCN(CC)CCCCNc1ncc2cc(-c3cc(OC)cc(OC)c3)c(NC(=O)NC(C)(C)C)nc2n1,% of control,[1],100%
COCCN1CCC(c2cc(CN(C)C(=O)c3cccc(Oc4ccccc4)c3)ccn2)CC1,% activity,[2]; at 1 µM,> 95%
same,% activity,[2]; at 10 µM,> 90%
COc1cc(N(C)c2ccnc3ccc(C(F)(F)F)cc23)cc(OC)c1OC,% binding,[3],97%
same,% binding,[4],78%
CN(C)CCOc1ccc(-c2nc(-c3ccncc3)c(-c3ccc4c(c3)CC/C4=N\O)[nH]2)cc1,% of control,[5],97%
CCn1c(-c2nc3cc(C(=O)N4CCCC(N)C4)ccc3n2C)cc2ccccc21 (stereo not drawn),pXC50,[6],< 4.4 M
C=CC(=O)Nc1ccc(C(=O)Nc2[nH]nc3c2CN(C(=O)N[C@H](CN(C)C)c2ccccc2)C3(C)C)cc1,% of engagement,[7],-10.2%
CC[C@@H]1[C@H](F)C(=O)N[C@@H]1COc1nccc2cc(C(N)=O)c(OC)cc12 [ZIMLOVISERTIB],% of inhibition,[8],7.57%
CNC(=O)Nc1ccc(-c2nc(N3CC4CCC(C3)O4)c3cnn(C4CCC5(CC4)OCCO5)c3n2)cc1,% of inhibition,[9],2%
C=CC(=O)Nc1cc(-n2c(=O)ccc3cnc4ccc(-c5ccc(NS(C)(=O)=O)cc5)cc4c32)ccc1C,% of control,[10]; at 1 µM,98%
same,% of control,[10]; at 10 µM,100%
N#Cc1cccc(-c2c[nH]c3ncnc(N4CCOCC4)c23)c1,% of control,[11],89%
